In patent publication US20090170901A1, “Benzoyl Urea Derivatives” (priority 2004, published 2009):
Where two headings read alike, the source gives them in different places.

What was measured:
NMRI mice = experiment: Mouse formalin test (second phase) for in vivo efficacy; settings: for ED50 at 20 mg/kg: Mus musculus, po
NR1a/NR2B NMDA receptor = target: T1, NR1a/NR2B NMDA receptor (Rattus norvegicus, UniProt P35439+Q00960); experiment: Functional NMDA antagonism, fluorimetric intracellular calcium measurement on HEK293 cells expressing NR1a/NR2B; assay type: cell-based
T1 construct: expressed in transfected cells
T1 sequence (Q00960 27-1482, other chains not shown): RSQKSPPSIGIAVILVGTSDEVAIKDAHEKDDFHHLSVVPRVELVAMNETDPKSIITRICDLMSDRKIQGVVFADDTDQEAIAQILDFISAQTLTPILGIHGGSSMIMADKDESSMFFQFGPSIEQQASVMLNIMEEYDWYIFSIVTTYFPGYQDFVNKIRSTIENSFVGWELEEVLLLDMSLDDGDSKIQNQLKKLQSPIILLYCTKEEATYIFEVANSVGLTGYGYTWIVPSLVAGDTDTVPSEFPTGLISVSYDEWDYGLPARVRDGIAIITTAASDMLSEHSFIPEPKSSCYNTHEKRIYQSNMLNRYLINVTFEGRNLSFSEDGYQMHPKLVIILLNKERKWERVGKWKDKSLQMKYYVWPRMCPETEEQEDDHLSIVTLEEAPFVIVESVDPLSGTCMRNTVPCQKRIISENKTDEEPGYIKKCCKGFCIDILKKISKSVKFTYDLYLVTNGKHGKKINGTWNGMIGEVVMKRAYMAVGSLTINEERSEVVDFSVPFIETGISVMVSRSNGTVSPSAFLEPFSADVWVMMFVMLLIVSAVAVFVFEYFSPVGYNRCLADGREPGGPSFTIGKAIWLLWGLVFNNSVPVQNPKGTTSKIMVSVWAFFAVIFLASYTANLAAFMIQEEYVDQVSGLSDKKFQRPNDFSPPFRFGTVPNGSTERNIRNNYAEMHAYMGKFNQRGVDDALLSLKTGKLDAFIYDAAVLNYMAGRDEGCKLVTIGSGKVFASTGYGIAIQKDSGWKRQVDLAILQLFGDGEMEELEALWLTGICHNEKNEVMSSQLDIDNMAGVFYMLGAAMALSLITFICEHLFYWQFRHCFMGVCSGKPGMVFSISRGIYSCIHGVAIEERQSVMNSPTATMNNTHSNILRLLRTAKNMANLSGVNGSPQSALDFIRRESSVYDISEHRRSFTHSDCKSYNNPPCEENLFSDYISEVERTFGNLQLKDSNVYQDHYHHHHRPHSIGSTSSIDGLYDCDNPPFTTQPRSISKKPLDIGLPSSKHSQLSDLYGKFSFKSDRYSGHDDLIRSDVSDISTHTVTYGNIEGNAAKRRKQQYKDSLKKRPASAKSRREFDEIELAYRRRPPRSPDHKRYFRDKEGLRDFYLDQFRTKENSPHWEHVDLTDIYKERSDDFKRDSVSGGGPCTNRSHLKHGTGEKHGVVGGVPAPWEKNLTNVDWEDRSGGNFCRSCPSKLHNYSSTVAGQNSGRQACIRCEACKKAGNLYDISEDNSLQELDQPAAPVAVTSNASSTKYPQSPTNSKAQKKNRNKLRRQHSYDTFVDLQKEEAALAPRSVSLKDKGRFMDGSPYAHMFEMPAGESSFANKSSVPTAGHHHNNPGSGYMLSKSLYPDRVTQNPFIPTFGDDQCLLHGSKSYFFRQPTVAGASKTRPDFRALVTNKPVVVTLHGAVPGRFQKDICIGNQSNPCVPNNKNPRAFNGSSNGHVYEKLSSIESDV
Procedure: (§1) Compounds were tested for their inhibitory action on NMDA evoked cytosolic calcium elevations in fluorescent calcium measurements. Studies were performed 48-72 h after addition of the inducing agent. Ketamine (500 μM) was also present during the induction in order to prevent cytotoxicity.
(§2) Assessing the Functional NMDA Antagonist Potency of Compounds on HEK293 cells expressing Recombinant NMDA Receptors Based on Measuring the Intracellular Calcium Concentration Using a Fluorimeter Plate Reader
Since NMDA receptors are known to be permeable to calcium ions upon excitation, the extent of NMDA receptor activation, and its inhibition by functional antagonists can be characterised by measuring the rise in the intracellular calcium concentration following agonist (NMDA) application onto the cells.
The intracellular calcium measurements are carried out on HEK293 cells expressing NR1a and NR2B or NR2A NMDA receptor subunits.
(§3) Loading is stopped by washing twice with the solution used also during the measurement (140 mM NaCl 5 mM KCl, 2 mM CaCl2, 5 mM HEPES [4-(2-hydroxyethyl)-1-piperazineethane-sulfonic acid], 5 mM HEPES—Na, 20 mM glucose, 10 μM glycine, pH=7.4). Then the test compound dissolved in the above solution (90 μl/well) is added. Intracellular calcium measurements are carried out with a plate reader fluorimeter. A rise in Fluo-4-fluorescence that reflects the intracellular calcium concentration is induced by application of 200 μM NMDA. Inhibitory potency of the test compound is assessed by measuring the reduction in the calcium elevation in the presence of different concentrations of the compound.
(§4) Inhibitory potency of a compound at a single concentration point is expressed as percent inhibition of the control NMDA response. For NR1a/NR2B expressing cells concentration-inhibition curves are produced. Sigmoidal concentration-inhibition curves are fitted over the data and IC50 values are defined as the concentration that produces half of the maximal inhibition that could be achieved with the compound. Mean IC50 values are derived from at least three independent experiments. For NR1-3/NR2A expressing cells antagonism of NMDA induced rise in intracellular calcium concentration by compounds of the present invention and reference compounds was tested at 10 and 15 microM concentration, respectively.

NR1-3/NR2A NMDA receptor = target: T2, NR1-3/NR2A NMDA receptor (Homo sapiens, UniProt Q05586+Q12879); experiment: Functional NMDA antagonism, fluorimetric intracellular calcium measurement on HEK293 cells expressing NR1-3/NR2A; assay type: cell-based; settings: NMDA evoked calcium rise, NR1-3/NR2A transfected HEK293 cells; for inhibition at 15 µM: Table 1, 15 uM compound
T2 construct: expressed in transfected cells
T2 sequence (Q12879 23-1464, other chains not shown): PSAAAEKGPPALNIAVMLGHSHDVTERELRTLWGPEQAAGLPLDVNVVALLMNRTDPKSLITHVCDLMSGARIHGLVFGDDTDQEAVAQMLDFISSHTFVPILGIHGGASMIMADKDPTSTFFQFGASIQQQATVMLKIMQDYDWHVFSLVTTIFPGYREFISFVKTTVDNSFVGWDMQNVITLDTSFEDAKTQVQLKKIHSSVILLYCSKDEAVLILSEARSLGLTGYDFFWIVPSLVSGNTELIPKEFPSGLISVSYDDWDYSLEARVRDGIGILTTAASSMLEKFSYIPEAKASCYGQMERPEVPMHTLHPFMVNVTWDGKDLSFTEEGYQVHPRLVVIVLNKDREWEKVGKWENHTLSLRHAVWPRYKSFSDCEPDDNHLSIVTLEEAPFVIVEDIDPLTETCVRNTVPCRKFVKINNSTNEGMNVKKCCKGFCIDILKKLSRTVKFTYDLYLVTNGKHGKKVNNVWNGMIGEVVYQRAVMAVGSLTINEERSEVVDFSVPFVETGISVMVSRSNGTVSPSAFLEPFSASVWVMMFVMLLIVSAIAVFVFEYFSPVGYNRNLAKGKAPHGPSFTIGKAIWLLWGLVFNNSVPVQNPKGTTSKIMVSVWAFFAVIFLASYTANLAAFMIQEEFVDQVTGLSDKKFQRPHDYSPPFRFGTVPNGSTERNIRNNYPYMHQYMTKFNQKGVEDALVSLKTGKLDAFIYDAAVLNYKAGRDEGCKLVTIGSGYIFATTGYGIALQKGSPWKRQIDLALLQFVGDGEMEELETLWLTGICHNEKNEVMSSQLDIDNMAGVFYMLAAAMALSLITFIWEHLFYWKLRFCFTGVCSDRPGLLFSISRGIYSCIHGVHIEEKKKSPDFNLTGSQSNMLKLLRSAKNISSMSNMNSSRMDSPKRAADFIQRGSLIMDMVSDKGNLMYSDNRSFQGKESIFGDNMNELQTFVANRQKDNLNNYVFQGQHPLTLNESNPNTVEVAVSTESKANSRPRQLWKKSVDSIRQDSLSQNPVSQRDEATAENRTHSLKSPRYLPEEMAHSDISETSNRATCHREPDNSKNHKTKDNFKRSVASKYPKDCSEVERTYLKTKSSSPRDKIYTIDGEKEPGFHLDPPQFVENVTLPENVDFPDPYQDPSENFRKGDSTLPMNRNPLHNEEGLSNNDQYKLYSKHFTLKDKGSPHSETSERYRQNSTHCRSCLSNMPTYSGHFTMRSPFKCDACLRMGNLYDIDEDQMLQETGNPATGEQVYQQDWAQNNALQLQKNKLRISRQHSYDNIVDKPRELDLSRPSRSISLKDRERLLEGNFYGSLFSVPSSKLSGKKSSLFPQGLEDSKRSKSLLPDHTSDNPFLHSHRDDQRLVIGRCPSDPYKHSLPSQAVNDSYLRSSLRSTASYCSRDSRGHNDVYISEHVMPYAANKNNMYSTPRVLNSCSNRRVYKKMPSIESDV
Procedure: as §1, with “(1997); Neurochemistry International, 43, 19-29. (2003)]. […] Compounds” for “Compounds”
as §2
Since NMDA receptors are known to be permeable to calcium ions upon excitation, the extent of NMDA receptor activation, and its inhibition by functional antagonists can be characterised by measuring the rise in the intracellular calcium concentration following agonist (NMDA) application onto the cells. Since there is very high sequence homology between rat and human NMDA receptors (99, 95, 97% for NR1, NR2A, and NR2B subunits, respectively), it is believed that there is little, if any, difference in their pharmacological sensitivity.
The intracellular calcium measurements are carried out on HEK293 cells expressing NR1a and NR2B or NR2A NMDA receptor subunits. Cells are plated onto standard 96-well microplates and the cultures are maintained in an atmosphere of 95% air-5% CO2 at 37° C. until testing.
as §3, with “The cells are loaded with a fluorescent Ca^2+-sensitive dye, Fluo-4/AM (2-2.5 μM) prior to testing. Loading” for “Loading”
as §4

[1] = given 15 min before formalin, licking/biting time 20 to 25 min after formalin, >20 means inhibition less than 50% at 20 mg/kg p.o.
[2] = ip, mouse formalin test, read-out: ED50
[3] = Table 1, inhibition of calcium rise induced by 200 μM NMDA, NR1a/NR2B transfected HEK293 cells, read-out: NR1a/NR2B IC50
[4] = Table 2, reference compounds, 10 uM compound

SMILES	ED50 at 20 mg/kg (NMRI mice; [1]) [mg/kg]	IC50 (NR1a/NR2B NMDA receptor; [3]) [nM]	inhibition at 15 µM (NR1-3/NR2A NMDA receptor) [%]	other results
Cc1ccc(CC2(O)CCN(CCOc3ccc(O)cc3)CC2)cc1 [Co-101244, 1-[2-(4-hydroxyphenoxy)ethyl]-4-hydroxy-4-(4-methylbenzyl)piperidine]	> 20			ED50 (NMRI mice; [2]): 5.9 mg/kg
COc1cccc(CC2CCN(C(=O)NC(=O)c3ccc(O)cc3)CC2)c1 [Example 26, 4-(3-Methoxy-benzyl)-piperidine-1-carboxylic Acid 4-hydroxy-benzoylamide]		58.9	-0.9	
O=C(CCN1CCC(Cc2ccc(F)cc2)CC1)c1ccc2[nH]c(=O)oc2c1 [EMD 95885, reference compound]				IC50 (NR1a/NR2B NMDA receptor; Table 2, reference compounds, inhibition of calcium rise induced by 200 μM NMDA, NR1a/NR2B transfected HEK293 cells, read-out: NR1a/NR2B IC50): 48 nM; NR1-3/NR2A % inhibition at 10 uM (NR1-3/NR2A NMDA receptor; [4]): 0.1%; ED50 (NMRI mice; p.o., given 15 min before formalin, licking/biting time 20 to 25 min after formalin, >20 means inhibition less than 50% at 20 mg/kg p.o.): 3.7 mg/kg
O=C(NC(=O)N1CCC(CSc2ccccc2)CC1)c1ccc(O)cc1 [Example 28, 4-(Phenylthio-methyl)-piperidine-1-carboxylic Acid 4-hydroxy-benzoylamide]		59.1	-2.9	
COc1ccc(CC2CCN(C(=O)NC(=O)c3ccc(O)cc3)CC2)cc1 [Example 2, 4-(4-Methoxy-benzyl)-piperidine-1-carboxylic Acid 4-hydroxy-benzoylamide]		7.6	-5.7	
C[C@@H](CN1CCC(Cc2ccccc2)CC1)[C@@H](O)c1ccc(O)cc1 [Ro 25.6981, R—(R*,S*)-1-(4-hydroxyphenyl)-2-methyl-3-[4-(phenylmethyl)piperidin-1-yl]-1-propanol, reference compound]	> 20			IC50 (NR1a/NR2B NMDA receptor): 57 nM; inhibition at 10 µM (NR1-3/NR2A NMDA receptor; [4]): 1%; ED50 (NMRI mice; [2]): 5.1 mg/kg
C[C@@H]([C@@H](O)c1ccc(O)cc1)N1CCC(O)(c2ccccc2)CC1 [CP 101,606, (1S,2S)-1-(4-hydroxyphenyl)-2-(4-hydroxy-4-phenylpiperidine-1-yl)-1-propanol]	> 20			
O=c1[nH]c2ccc([S+]([O-])CCN3CCC(Cc4ccc(F)cc4)CC3)cc2o1 (centres unmarked) [CI-1041, 6-{2-[4-(4-fluoro-benzyl)-piperidin-1-yl]-ethanesulfinyl}-3H-benzooxazol-2-one]	2.4			
O=C(NC(=O)N1CCC(Cc2ccccc2)CC1)c1ccc2[nH]c(=O)oc2c1 [Example 7, 4-Benzyl-piperidine-1-carboxylic Acid (2-oxo-2,3-dihydro-benzooxazole-6-carbonyl)-amide]		59.6	-6.7	
O=C(NC(=O)N1CCC(Cc2ccccc2)CC1)c1ccc(O)cc1 [Example 1, 4-Benzyl-piperidine-1-carboxylic Acid 4-hydroxy-benzoylamide]		28	2.6	
Cc1ccc(CCC2CCN(C(=O)NC(=O)c3ccc(O)cc3)CC2)cc1 [Example 27, 4-[2-(p-Tolyl)-ethyl]-piperidine-1-carboxylic acid 4-hydroxy-benzoylamide]		14.3	11.4	
